Results on 34 molecules are retold here after patent US11786503B2, “Pharmaceutical compositions and methods for countering chemotherapy induced cardiotoxicity” (Auransa Inc., priority 2016, dated 2023).

Where two headings read alike, the source gives them in different places. Bounds are passed on as bounds.

One assay addresses T1, TOPOIIα (Homo sapiens, UniProt P11388).
T1 construct: purchased Inspiralis
As to the kind of experiment: kDNA decatenation assay, TOPOIIα.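 For all read-outs here: kDNA incubated with one unit of TOPOIIα at 37 °C for 30 min, decatenated product resolved on 1% agarose gel, inhibition from relative band intensity.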 The format is biochemical. The note with it: for TOPOIIα inhibition, in words: decatenation assay.

Another assay concerns the target T2, TOPOIIβ (Homo sapiens, UniProt Q02880).
T2 construct: purchased Inspiralis
Nature of the assay: kDNA decatenation assay, TOPOIIβ.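 For all read-outs here: kinetoplast DNA incubated with one unit of TOPOIIβ at 37 °C for 30 min, decatenated product resolved on 1% agarose gel, inhibition scored from relative band intensity.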 The class given is biochemical. The note with it: for TOPOIIβ inhibition, in words: decatenation assay.

Assay [1] concerns Doxorubicin treated human iPSC-derived cardiomyocytes. As to the kind of experiment: iPSC-CM protection by myricetin analogs (Table 1). Particulars: for cardioprotection, in words: Table 1. The class given is cell-based.
Setting [2] is: read-out: iPSC-CM protection EC50.
The mark [3] stands for this setting: approximate, read-out: EC50 for cardioprotection.
Setting [4] is: Homo sapiens, iPSC-CM, read-out: iPSC-CM protection EC50.
[5] abbreviates: Homo sapiens, iPSC-CM, read-out: iPSC-CM protection Max Effect (%).
The mark [6] stands for this setting: Homo sapiens, iPSC-CM, initial screen at 10 μM or 100 μM, read-out: iPSC-CM protection Max Effect (%), class symbol.
[7] abbreviates: initial screen at 10 μM or 100 μM.
[8] abbreviates: Homo sapiens, iPSC-CM, read-out: iPSC-CM protection Max Effect (%), class symbol.

T1 sequence (P11388 whole entry): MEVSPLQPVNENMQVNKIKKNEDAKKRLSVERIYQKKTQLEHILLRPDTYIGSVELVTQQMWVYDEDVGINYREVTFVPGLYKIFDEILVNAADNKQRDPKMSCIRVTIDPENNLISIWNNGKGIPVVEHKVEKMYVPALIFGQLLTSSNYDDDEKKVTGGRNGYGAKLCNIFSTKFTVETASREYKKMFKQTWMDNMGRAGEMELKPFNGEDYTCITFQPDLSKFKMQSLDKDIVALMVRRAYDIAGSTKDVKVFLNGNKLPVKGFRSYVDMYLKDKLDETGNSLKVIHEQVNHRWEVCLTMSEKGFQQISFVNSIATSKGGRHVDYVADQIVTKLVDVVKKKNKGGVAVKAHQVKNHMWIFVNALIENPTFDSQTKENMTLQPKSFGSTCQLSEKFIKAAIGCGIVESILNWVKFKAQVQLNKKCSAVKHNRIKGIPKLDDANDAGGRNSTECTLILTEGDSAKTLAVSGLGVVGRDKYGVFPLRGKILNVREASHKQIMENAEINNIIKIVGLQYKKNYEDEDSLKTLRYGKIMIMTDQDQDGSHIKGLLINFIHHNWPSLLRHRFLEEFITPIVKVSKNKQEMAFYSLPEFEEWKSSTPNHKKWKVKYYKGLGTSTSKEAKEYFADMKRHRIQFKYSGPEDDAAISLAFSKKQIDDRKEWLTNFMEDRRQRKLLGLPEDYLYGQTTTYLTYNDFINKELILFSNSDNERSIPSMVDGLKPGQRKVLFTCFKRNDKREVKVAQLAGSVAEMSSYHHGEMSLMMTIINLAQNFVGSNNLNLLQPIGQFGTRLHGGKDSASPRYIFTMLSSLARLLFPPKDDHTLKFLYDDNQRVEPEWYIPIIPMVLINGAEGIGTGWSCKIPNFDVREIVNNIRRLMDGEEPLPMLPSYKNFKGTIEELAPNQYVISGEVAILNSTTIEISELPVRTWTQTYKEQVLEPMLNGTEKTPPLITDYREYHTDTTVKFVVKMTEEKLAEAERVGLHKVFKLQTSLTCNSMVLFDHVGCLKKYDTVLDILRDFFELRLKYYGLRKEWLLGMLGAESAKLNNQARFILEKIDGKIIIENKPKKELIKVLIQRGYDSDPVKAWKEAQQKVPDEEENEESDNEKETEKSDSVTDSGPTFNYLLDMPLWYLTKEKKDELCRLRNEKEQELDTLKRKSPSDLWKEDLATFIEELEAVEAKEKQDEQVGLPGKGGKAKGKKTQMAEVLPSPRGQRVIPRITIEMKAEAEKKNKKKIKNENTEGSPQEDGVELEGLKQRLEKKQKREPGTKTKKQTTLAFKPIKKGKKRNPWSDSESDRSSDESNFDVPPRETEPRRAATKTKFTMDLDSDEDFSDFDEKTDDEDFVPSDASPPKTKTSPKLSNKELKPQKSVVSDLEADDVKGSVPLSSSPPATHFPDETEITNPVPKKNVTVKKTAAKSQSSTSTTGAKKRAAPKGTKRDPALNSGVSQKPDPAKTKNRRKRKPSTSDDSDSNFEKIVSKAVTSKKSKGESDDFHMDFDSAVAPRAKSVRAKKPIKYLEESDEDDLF
T2 sequence (Q02880 whole entry): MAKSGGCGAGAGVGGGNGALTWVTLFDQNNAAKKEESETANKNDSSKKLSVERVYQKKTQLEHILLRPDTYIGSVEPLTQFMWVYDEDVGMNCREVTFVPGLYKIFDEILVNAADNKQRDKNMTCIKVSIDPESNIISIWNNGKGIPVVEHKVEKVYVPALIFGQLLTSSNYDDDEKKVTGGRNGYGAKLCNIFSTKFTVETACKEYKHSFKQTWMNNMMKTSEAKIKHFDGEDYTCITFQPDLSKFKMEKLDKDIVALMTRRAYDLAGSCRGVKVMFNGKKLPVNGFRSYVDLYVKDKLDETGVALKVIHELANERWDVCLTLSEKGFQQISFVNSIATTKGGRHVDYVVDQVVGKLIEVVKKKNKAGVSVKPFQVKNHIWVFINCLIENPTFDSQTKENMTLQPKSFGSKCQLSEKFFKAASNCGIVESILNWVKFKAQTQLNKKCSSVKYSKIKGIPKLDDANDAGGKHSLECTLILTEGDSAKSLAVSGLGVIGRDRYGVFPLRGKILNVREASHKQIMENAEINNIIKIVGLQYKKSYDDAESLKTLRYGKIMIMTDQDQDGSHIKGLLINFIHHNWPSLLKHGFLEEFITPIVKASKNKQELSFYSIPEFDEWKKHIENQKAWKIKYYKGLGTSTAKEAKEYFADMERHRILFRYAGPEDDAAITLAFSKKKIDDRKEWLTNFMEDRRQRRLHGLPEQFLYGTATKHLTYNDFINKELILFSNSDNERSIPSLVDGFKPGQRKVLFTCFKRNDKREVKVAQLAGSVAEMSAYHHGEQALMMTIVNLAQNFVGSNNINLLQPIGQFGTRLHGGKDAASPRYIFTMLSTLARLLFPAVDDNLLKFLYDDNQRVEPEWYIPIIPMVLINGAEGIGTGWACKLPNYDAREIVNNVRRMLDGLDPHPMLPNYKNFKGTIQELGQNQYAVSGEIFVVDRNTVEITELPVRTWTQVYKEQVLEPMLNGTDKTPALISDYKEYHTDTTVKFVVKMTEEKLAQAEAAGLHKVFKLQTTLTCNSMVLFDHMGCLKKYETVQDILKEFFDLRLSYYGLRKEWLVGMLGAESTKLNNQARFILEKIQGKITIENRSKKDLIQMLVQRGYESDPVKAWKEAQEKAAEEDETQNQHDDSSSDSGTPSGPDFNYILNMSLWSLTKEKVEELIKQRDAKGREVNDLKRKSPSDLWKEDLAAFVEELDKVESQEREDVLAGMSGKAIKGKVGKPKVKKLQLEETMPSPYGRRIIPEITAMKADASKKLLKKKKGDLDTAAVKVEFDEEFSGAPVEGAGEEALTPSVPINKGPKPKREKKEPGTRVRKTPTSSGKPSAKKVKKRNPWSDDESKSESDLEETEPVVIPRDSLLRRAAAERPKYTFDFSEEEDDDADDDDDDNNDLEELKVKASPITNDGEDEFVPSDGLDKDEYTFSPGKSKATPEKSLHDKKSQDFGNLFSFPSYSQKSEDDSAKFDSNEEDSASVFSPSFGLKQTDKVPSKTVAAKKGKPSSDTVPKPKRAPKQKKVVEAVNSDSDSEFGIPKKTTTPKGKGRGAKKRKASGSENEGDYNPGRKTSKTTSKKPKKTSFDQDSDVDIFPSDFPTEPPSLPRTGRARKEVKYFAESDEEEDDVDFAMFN

For `O=C1c2ccc(O)cc2OC(c2cc(O)c(O)c(O)c2)C1O` (stereo in doubt) [Compound 30, dihydrorobinetin], on TOPOIIα, the “TOPIIα Inhibition” value is reported as “−” and the “TOPOIIα inhibition, in words” value is listed as “no inhibitory activity”. On TOPOIIβ, the “TOPIIβ Inhibition” value is given as “−” and the “TOPOIIβ inhibition, in words” value was “no inhibitory activity”. Also, the “iPSC-CM protection Max Effect (%)” value in assay [1] is listed as 53%. Besides, the EC50 in assay [1] (setting [2]) was determined as 14 µM.
As for `COc1ccc2c(=O)c(OC)c(-c3cc(OC)c(OC)c(OC)c3)oc2c1` [3,7,3′,4′,5′-O-pentamethylrobinetin], at TOPOIIα, the “TOPOIIα inhibition, in words” value is recorded as “entirely failed to display cardioprotection or TOPOII inhibition”. Besides, on TOPOIIβ, the “TOPOIIβ inhibition, in words” value is reported as “entirely failed to display cardioprotection or TOPOII inhibition”. For the same molecule, the “cardioprotection, in words” value in assay [1] is reported as “entirely failed to display cardioprotection or TOPOII inhibition”.
`COc1cc(-c2oc3cc(O)cc(O)c3c(=O)c2O)cc(OC)c1OC` [3′,4′,5′-O-trimethylmyricetin]: the “TOPOIIα inhibition, in words” value at TOPOIIα is “entirely failed to display cardioprotection or TOPOII inhibition”. The “TOPOIIβ inhibition, in words” value on TOPOIIβ is given as “entirely failed to display cardioprotection or TOPOII inhibition”. For the same molecule, the “cardioprotection, in words” value in assay [1] is recorded as “entirely failed to display cardioprotection or TOPOII inhibition”.
For `O=c1cc(-c2cc(O)c(O)c(O)c2)oc2ccccc12` [3′,4′,5′-trihydroxyflavone], the EC50 in assay [1] (Homo sapiens, Cardiomyocyte, read-out: potency for cardioprotection) is no less than 30 µM.
Take `COc1cc(-c2oc3cc(O)cc(O)c3c(=O)c2O)cc(OC)c1O` [3′,5′-O-dimethylmyricetin]: the “TOPOIIα inhibition, in words” value on TOPOIIα was “neither cardioprotection nor TOPOIIα and TOPOIIβ inhibition”. Moreover, on TOPOIIβ, the “TOPOIIβ inhibition, in words” value was “neither cardioprotection nor TOPOIIα and TOPOIIβ inhibition”. The “cardioprotection, in words” value in assay [1] is “neither cardioprotection nor TOPOIIα and TOPOIIβ inhibition”.
For the molecule `COc1cc(-c2oc3cc(O)cc(O)c3c(=O)c2O)cc(O)c1O` [3′-O-methylmyricetin], on TOPOIIα, the “TOPOIIα inhibition, in words” value is “failed to inhibit”. For the same molecule, the “TOPOIIβ inhibition, in words” value at TOPOIIβ is reported as “failed to inhibit”. Moreover, the “cardioprotection, in words” value in assay [1] is listed as “conferred cardioprotection”. Besides, in assay [1] (setting [3]), the EC50 is roughly 59 µM.
As for `COc1c(O)cc(-c2oc3cc(O)cc(O)c3c(=O)c2O)cc1O` [4′-O-methylmyricetin], the “TOPOIIα inhibition, in words” value at TOPOIIα was “without TOPOII inhibition”. Moreover, the “TOPOIIβ inhibition, in words” value at TOPOIIβ is on record as “without TOPOII inhibition”. In addition, the “cardioprotection, in words” value in assay [1] was “conferred cardioprotection”. For the same molecule, the EC50 in assay [1] (setting [3]) is roughly 48.7 µM.
Take `COc1ccc2c(=O)c(O)c(-c3cc(OC)c(OC)c(OC)c3)oc2c1` [7,3′,4′,5′-O-tetramethylrobinetin]: the “TOPOIIα inhibition, in words” value on TOPOIIα is “entirely failed to display cardioprotection or TOPOII inhibition”. In addition, the “TOPOIIβ inhibition, in words” value on TOPOIIβ is on record as “entirely failed to display cardioprotection or TOPOII inhibition”. In addition, in assay [1], the “cardioprotection, in words” value is “entirely failed to display cardioprotection or TOPOII inhibition”.
As for `O=c1c(O)c(-c2ccc(O)c(O)c2)oc2cc(O)ccc12` [Compound 5, 3,7,3′,4′-tetrahydroxyflavone], in assay [1] (setting [4]), the EC50 was 16.3 µM. For the same molecule, in assay [1] (setting [5]), the Emax came to 36%.
On to `O=c1cc(-c2ccc(O)c(O)c2)oc2cc(O)cc(O)c12` [Compound 9, 5,7,3′,4′-tetrahydroxyflavone], for which the “TOPIIα Inhibition” value at TOPOIIα is “−”. Also, the “TOPIIβ Inhibition” value at TOPOIIβ is “−”. Also, in assay [1] (setting [4]), the EC50 was 9.67 µM. For the same molecule, in assay [1] (setting [5]), the Emax is 62%.
Turning to `O=c1cc(-c2ccc(O)c(O)c2)oc2cc(O)ccc12` [Compound 11, 7,3′,4′-trihydroxyflavone], the “TOPIIα Inhibition” value on TOPOIIα was “−”. The “TOPIIβ Inhibition” value at TOPOIIβ is given as “−”. The Rescue result in assay [1] is reported as “+”. Besides, the EC50 in assay [1] (setting [4]) was found to be 6.25 µM. The Emax in assay [1] (setting [5]) was found to be 24%.
Take `O=c1c(O)c(-c2ccc(O)c(O)c2)oc2ccccc12` [Compound 12, 3,3′,4′-trihydroxyflavone]: the “TOPIIα Inhibition” value on TOPOIIα is recorded as “−”. Further, the “TOPIIβ Inhibition” value on TOPOIIβ is “−”. Moreover, in assay [1], the Rescue result was “+”. In addition, the EC50 in assay [1] (setting [4]) is 6.43 µM. Also, the Emax in assay [1] (setting [5]) was 16%.
As for `O=c1cc(-c2ccc(O)cc2)oc2cc(O)cc(O)c12` [Compound 13, 5,7,4′,-trihydroxyflavone], the Rescue result in assay [1] is on record as “−”. Moreover, the Emax in assay [1] (setting [6]) was less than 30%.
For `O=c1cc(-c2ccc(O)c(O)c2)oc2ccccc12` [Compound 14, 3′,4′-dihydroxyflavone] the same measures were “−” and less than 30%.
For `O=c1cc(-c2ccc(O)cc2)oc2cc(O)ccc12` [Compound 15, 7,4′-dihydroxyflavone], the Rescue result in assay [1] was “−”. In assay [1] (setting [6]), the Emax was less than 30%.
The like results for `O=c1c(O)c(-c2ccc(O)cc2)oc2ccccc12` [Compound 16, 3,4′-dihydroxyflavone] were, in that order, “−” and less than 30%.
As to `O=c1cc(-c2ccc(O)cc2)oc2ccccc12` [Compound 17, 4′-hrydroxyflavone], the Rescue result in assay [1] is reported as “−”. In addition, in assay [1] (setting [7]), the “iPSC-CM protection Max Effect (%), class symbol” value is “† (Compounds failed to exhibit >30% protection Max Effect at 10 μM or 100 μM on initial screen.)”.
Take `O=c1c(O)c(-c2cccc(O)c2)oc2cc(O)ccc12` [Compound 18, 3,7,3′-trihydroxyflavone]: the Rescue entry in assay [1] is on record as “−”. For the same molecule, the Emax in assay [1] (setting [6]) was less than 30%.
In the case of `O=c1c(O)c(-c2ccccc2)oc2cc(O)cc(O)c12` [Compound 19, 3,5,7-trihydroxyflavone], in assay [1], the Rescue result is reported as “−”. Further, in assay [1] (setting [6]), the Emax was less than 30%.
Consider `O=c1c(O)c(-c2ccccc2)oc2cc(O)ccc12` [Compound 20, 3,7-dihydroxyflavone], for which the Rescue result in assay [1] is “−”.
Turning to `O=c1cc(-c2cccc(O)c2)oc2cc(O)ccc12` [Compound 21, 7,3′-dihydroxyflavone], in assay [1], the Rescue entry was “−”. Further, the Emax in assay [1] (setting [6]) was less than 30%.
Consider `O=c1c(O)c(-c2cccc(O)c2)oc2ccccc12` [Compound 22, 3,3′-dihydroxyflavone], for which the Rescue entry in assay [1] was “−”. In addition, the Emax in assay [1] (setting [6]) is less than 30%.
As to `O=c1cc(-c2ccccc2)oc2cc(O)cc(O)c12` [Compound 23, 5,7-dihydroxyflavone], the Rescue entry in assay [1] was “−”. Moreover, the Emax in assay [1] (setting [6]) is less than 30%.
`O=c1cc(-c2ccccc2)oc2cc(O)ccc12` [Compound 24, 7-hydroxyflavone]: the Rescue result in assay [1] is “−”. Also, the Emax in assay [1] (setting [8]) is less than 30%.
With `O=c1c(O)c(-c2ccccc2)oc2ccccc12` [Compound 25, 3-hydroxyflavone], in assay [1], the Rescue entry is “−”. The Emax in assay [1] (setting [6]) was less than 30%.
For the molecule `O=c1cc(-c2cc(O)cc(O)c2)oc2ccccc12` [Compound 26, 3′,5′-dihydroxyflavone], the Rescue entry in assay [1] is recorded as “−”. Moreover, the Emax in assay [1] (setting [8]) is less than 30%.
On to `O=c1cc(-c2cccc(O)c2)oc2ccccc12` [Compound 27, 3′-hydroxyflavone], for which, in assay [1], the Rescue entry was “−”. Besides, the Emax in assay [1] (setting [6]) is less than 30%.
Turning to `O=c1cc(-c2ccccc2)oc2ccccc12` [Compound 28, flavone], in assay [1], the Rescue result was “−”. Besides, the Emax in assay [1] (setting [6]) was less than 30%.
In the case of `COc1cc(-c2oc3cc(O)cc(O)c3c(=O)c2O)cc(O)c1O` [Compound 31, 3′-O-methylmyricetin], the “TOPIIα Inhibition” value on TOPOIIα is given as “−”. The “TOPIIβ Inhibition” value at TOPOIIβ is reported as “−”. In assay [1], the Rescue result was “+” and the “iPSC-CM protection Max Effect (%)” value turned out to be 76%. Moreover, the EC50 in assay [1] (setting [2]) came to 58.7 µM.
For the molecule `COc1c(O)cc(-c2oc3cc(O)cc(O)c3c(=O)c2O)cc1O` [Compound 32, 4′-O-methylmyricetin], the “TOPIIα Inhibition” value on TOPOIIα is “−”. Also, the “TOPIIβ Inhibition” value at TOPOIIβ is listed as “−”. Also, in assay [1], the Rescue result is “+” and the “iPSC-CM protection Max Effect (%)” value is 68%. In assay [1] (setting [2]), the EC50 stood at 48.6 µM.
For the molecule `COc1cc(-c2oc3cc(O)cc(O)c3c(=O)c2O)cc(OC)c1O` [Compound 33, 3′,5′-O-dimethylmyricetin], on TOPOIIα, the “TOPIIα Inhibition” value was “−”. Further, the “TOPIIβ Inhibition” value at TOPOIIβ was “−”. Moreover, the Rescue entry in assay [1] was “−”. The “iPSC-CM protection Max Effect (%), class symbol” value in assay [1] (setting [7]) was “† (Compounds failed to exhibit >30% protection Max Effect at 10 μM or 100 μM on initial screen.)”.
As for `COc1cc(-c2oc3cc(O)cc(O)c3c(=O)c2O)cc(OC)c1OC` [Compound 34, 3′,4′,5′-O-trimethylmyricetin], the “TOPIIα Inhibition” value at TOPOIIα is given as “−”. Also, the “TOPIIβ Inhibition” value on TOPOIIβ is given as “−”. Also, the Rescue entry in assay [1] is given as “−”. The “iPSC-CM protection Max Effect (%), class symbol” value in assay [1] (setting [7]) is on record as “† (Compounds failed to exhibit >30% protection Max Effect at 10 μM or 100 μM on initial screen.)”.
With `COc1cc(-c2oc3cc(O)ccc3c(=O)c2O)cc(OC)c1OC` [Compound 35, 3',4',5'-O-trimethylrobinetin], on TOPOIIα, the “TOPIIα Inhibition” value is “−” and the “TOPOIIα inhibition, in words” value was “entirely failed to display cardioprotection or TOPOII inhibition”. Further, on TOPOIIβ, the “TOPIIβ Inhibition” value is given as “−” and the “TOPOIIβ inhibition, in words” value is “entirely failed to display cardioprotection or TOPOII inhibition”. In assay [1], the Rescue entry is listed as “−” and the “cardioprotection, in words” value is listed as “entirely failed to display cardioprotection or TOPOII inhibition”. Also, the “iPSC-CM protection Max Effect (%), class symbol” value in assay [1] (setting [7]) was “† (Compounds failed to exhibit >30% protection Max Effect at 10 μM or 100 μM on initial screen.)”.
Consider `COc1ccc2c(=O)c(O)c(-c3cc(OC)c(OC)c(OC)c3)oc2c1` [Compound 36, 7,3′,4′,5′-O-tetramethylrobinetin], for which, on TOPOIIα, the “TOPIIα Inhibition” value is listed as “−”. Also, at TOPOIIβ, the “TOPIIβ Inhibition” value is “−”. Besides, in assay [1], the Rescue result is reported as “−”. Also, the “iPSC-CM protection Max Effect (%), class symbol” value in assay [1] (setting [7]) is listed as “† (Compounds failed to exhibit >30% protection Max Effect at 10 μM or 100 μM on initial screen.)”.
